assay: in vitro; conditions: human, hela cells, % viability

| Compound | viability at 28.5 h, 10 µM |
| --- | --- |
| Cc1cc(NC(=O)CN2CC(C(=O)N3CCN(c4ccccc4)CC3)C2)no1 [CBK285665] | 112% |
| O=S(=O)(O)c1cccc2cccc(Nc3ccccc3)c12 [CBK013362G] | 84.8% |
| CC(Cn1cccn1)C(=O)Nc1cccc(N2CCCC2)c1 (centres unmarked) [CBK283249] | 87.1% |
| Cc1cnn(CC(=O)NC(Cc2ccsc2)c2nccs2)c1 (centres unmarked) [CBK282825] | 105% |
| FC(F)(F)C1CN(C2CCCCC2)C(=S)S1 (centres unmarked) [CBK009719] | 84.2% |
| [2H]C(C(=O)NCc1ccc2c(c1)CCC2)n1cc(-c2ccc(CN3CCC(C)CC3)cc2)nn1 (centres unmarked) [CBK166081-L1] | 97.7% |
| O=C(Nc1nc(-c2ccco2)c(-c2ccncc2)s1)C1CC1 [CBK284494] | 87.4% |
| Cc1nc(C)c(C(=O)N2Cc3ccccc3C2)s1 [CBK200326] | 95.9% |
| Cc1csc2c(C3CCN(C(=O)c4ccn(C)n4)CC3)nc(C)n12 [CBK285248] | 105% |
| CC(C)[C@H](CO)Nc1nccnc1-c1ccccc1F [CBK037987] | 106% |
| COC(=O)C1C2CCN(CC2)C1SCc1cccc(C(F)(F)F)c1 (centres unmarked) [CBK010829C] | 87.1% |
| CCN(CC)C(=O)C1CCCN(C(=O)NCCc2c[nH]cn2)C1 (centres unmarked) [CBK156124] | 96.9% |
| COc1ccc(/C=C/c2nc3ccccc3s2)cc1S(=O)(=O)N1CCOCC1 [CBK269373] | 89.9% |
| Cn1ncnc1CCNC(=O)N1CCCN(Cc2cccs2)CC1 [CBK307670] | 95.8% |
| COc1ccc(-c2cnn(-c3ccc(OC(F)(F)F)cc3)n2)cc1 [CBK112773] | 87.6% |
| COc1cc2nc(NC(=O)C3COc4ccccc4O3)sc2cc1OC (centres unmarked) [CBK287702] | 109% |
| CC(=O)NCC(=O)Nc1cnc(-c2cccc(C(F)(F)F)c2)c(-c2cccnc2)n1 [CBK036809] | 103% |
| COc1cc2c(=O)n(C)c3nncn3c2cc1OC [CBK288182] | 98.1% |
| COCC(=O)Nc1c[nH]nc1C1CCCN(c2cccc(F)c2C#N)C1 (centres unmarked) [CBK305395] | 86% |
| CN1CCN(C(=O)c2ccc(-c3cccc(C(F)(F)F)c3)nc2N2CCOCC2)CC1 [CBK106194] | 94% |
| CC(NS(=O)(=O)c1ccc(Cl)cc1)C(=O)Nc1ccccc1Sc1ccccc1 (centres unmarked) [CBK266984] | 98.4% |
| CC(C)Cc1ccc(S(=O)(=O)Nc2ccc(C(=O)O)cc2)cc1 [CBK297930] | 98.4% |

| Compound | viability at 28.5 h, 10 µM |
| --- | --- |
| CC1Cc2ccccc2N1C(=O)CSc1nnc2sc3ccccc3n12 (centres unmarked) [CBK265398] | 94% |
| Cn1c(C(=O)NCCN2CCOCC2)cc2oc(-c3ccccc3)nc2c1=O [CBK056726T] | 87.8% |
| O=C(CSc1nnc(COc2cccc3cccnc23)n1-c1ccccc1)N1CCCC1 [CBK269614] | 79.1% |
| Cc1ccnc(SCc2cc(=O)c3c(=O)n(-c4ccccc4)[nH]c3[nH]2)n1 [CBK269875] | 110% |
| CCOCCC(=O)N/N=C(/C)c1ccc(Cl)s1 [CBK007454] | 94.8% |
| CC(C)OC(=O)CSc1nnc(-c2cnccn2)n1Cc1ccco1 [CBK267586] | 117% |
| c1cnn(CCCNc2nc3nonc3nc2N2CCCCCC2)c1 [CBK307318] | 110% |
| CCn1ncc2c1CCCC2NC1CCN(c2ccc(C#N)cc2)C1=O (centres unmarked) [CBK305200] | 96.8% |
| O=C(O)c1cc(S(=O)(=O)NCc2ccco2)ccc1Br [CBK306193] | 83.7% |
| COc1ccc(NC(=O)NS(=O)(=O)c2sc3ccc(Cl)cc3c2C)cc1OC [CBK156300] | 91.3% |
| O=C(CSc1nnc(-c2ccncc2)n1-c1ccccc1)N/N=C/c1c[nH]c2ccc(Br)cc12 [CBK262816] | 91.5% |
| COCC(=O)N1CCC(Cc2ccc(-c3cccc(C)c3)cc2)(C(=O)NC(C)C)CC1 [CBK285759] | 93.6% |
| CN(CC(=O)N1CCCCC1)S(=O)(=O)c1cc(Cl)ccc1Cl [CBK091826] | 78.9% |
| Cc1cc(/C=C2\NC(=O)NC2=O)c(C)n1-c1ccc(OCc2ccccc2F)cc1 [CBK264842] | 88.3% |
| CC(C)Oc1ccccc1-c1nnc(SCC(=O)O)[nH]1 [CBK262702] | 81.7% |
| NC(=O)CN1CC2(CCN(CCCn3c(=O)[nH]c4ccccc43)CC2)c2ccccc21 [CBK126787] | 89.6% |
| FC(F)(F)c1cccc(SCCc2ccccn2)n1 [CBK103719] | 97.3% |
| CNC(=O)C1(Cc2ccccc2-c2ccccc2)CCN(C(=O)Cc2cccc(C)c2)CC1 [CBK285594] | 104% |
| CN1CCC(N[C@H]2C[C@@H](Cc3cc(CCO)on3)C2(C)C)CC1 [CBK289253] | 93.6% |
| COc1ccc2nc(Nc3nc(C)c(C(C)=O)s3)sc2c1 [CBK287483] | 94.8% |
| O=C(NC(=S)Nc1sc2c(c1C(=O)O)CCCC2)c1ccccc1 [CBK263695] | 98.1% |
| CC(=O)Nc1cccc(-c2cncc(NCCc3ccccn3)n2)c1 [CBK065359] | 103% |

| Compound | viability at 28.5 h, 10 µM |
| --- | --- |
| NC(=O)CCCCn1c2c(c3cccc(C(=O)O)c31)CCCCC2 [CBK034088] | 104% |
| Cn1cc(C(=O)Nc2ccccc2N2CCNCC2)c2ccccc21 [CBK034141T] | 92.2% |
| O=C(C1CCCC1)N1CCC(n2c(=O)oc3ccccc32)CC1 [CBK284349] | 83.7% |
| C=CCn1c(Cc2csc(NC(=O)c3cccc(Cl)c3)n2)n[nH]c1=S [CBK295314] | 98.3% |
| COc1ccc(Oc2ncnc3c2oc2ccccc23)cc1 [CBK291224] | 86.4% |
| O=C(c1ccc(-c2cnc3[nH]c(=O)n(Cc4ccccn4)c3n2)cc1)N1CCOCC1 [CBK064413] | 110% |
| Cc1ccccc1OC(C)C(=O)Nc1nnc[nH]1 (centres unmarked) [CBK268605] | 85.6% |
| O=C(NC(Cc1ccsc1)c1nccs1)C1CC2C=CC1O2 (centres unmarked) [CBK285096] | 91.9% |
| COc1cccc(OC)c1OCCNC1CCc2cc(Cl)ccc2C1 (centres unmarked) [CBK013079C] | 88.9% |
| O=C(c1ccccc1)c1cc(Cl)ccc1-n1ccnc1 [CBK012383] | 105% |
| O=C(Cn1cnc(-c2nccs2)n1)N1CCCCCC1 [CBK306165] | 97.5% |
| O=[S+]([O-])(c1ccccc1)N1CCC(N(CCc2ccccc2)Cc2ccccc2)CC1 [CBK264617G] | 102% |
| CCSc1nnc2c(n1)OC(C1CC=C(C)CC1)Nc1ccccc1-2 (centres unmarked) [CBK262367] | 95.5% |
| OC(COc1cccc2c1CCCC2)CN1CCC(O)(c2ccc(Cl)c(C(F)(F)F)c2)CC1 (centres unmarked) [CBK003581] | 102% |
| CCc1cc(=O)[nH]c(-c2ccc(N3CCCC3C(=O)N(C)C)nc2)n1 (centres unmarked) [CBK304197] | 89.2% |
| CCOC(=O)c1[nH]c2ccccc2c1NS(=O)(=O)Cc1ccccc1 [CBK047413] | 93.1% |
| O=S(=O)(CCSc1nc2ccccc2s1)c1nc2ccccc2s1 [CBK026908] | 92.4% |
| Cc1nnc(CS(=O)(=O)Cc2csc(C(C)(C)C)n2)n1C1CC1 [CBK305489] | 109% |
| C#CCn1cc(CN2CCc3c(nc(C)[nH]c3=O)C2)c2ccccc21 [CBK282382] | 102% |
| COc1ccc(C(CCN)c2ccccc2OC)cc1 (centres unmarked) [CBK266125] | 103% |
| O=C(/C(=C\c1ccc([N+](=O)[O-])cc1)n1cncn1)c1ccc(Cl)cc1Cl [CBK262145] | 90.3% |
| COc1ccc(-c2nccnc2N[C@@H](CO)C(C)C)cc1 [CBK089040] | 98.5% |

| Compound | viability at 28.5 h, 10 µM |
| --- | --- |
| Cn1ncnc1COc1ccc(S(=O)(=O)NC2CCCC2)cc1 [CBK306305] | 107% |
| Fc1ccc(CNc2c(-c3ccco3)nc3cnccn23)cc1 [CBK283694] | 92% |
| CCOC(=O)N/N=C(/C)C(C)(C)C [CBK016460] | 105% |
| COc1ccc(C(=O)CC(SCC(NC(C)=O)C(=O)O)c2ccc(Cl)cc2)cc1OC (centres unmarked) [CBK296109] | 88.4% |
| COC(=O)CCn1c(=O)c2c(nc3oc(C(C)(C)C)cn32)n(C)c1=O [CBK306034] | 87.7% |
| COc1cc2c(cc1OC)CN(CC(N)=O)CC2 [CBK126391] | 86.8% |
| O=S(=O)(NCCOCc1ccccc1)c1ccc2c(c1)Cc1ccccc1-2 [CBK266032] | 101% |
| CC(=O)Nc1cccc(CN(CCCO)c2ccccc2)c1 [CBK304833] | 97.1% |
| CCn1c(C(C)C)nc2cc(NC(=O)Cc3c(C)noc3C)ccc21 [CBK281527] | 90.3% |
| CCC(CC)C(=O)N1C[C@H]2CCc3nnc(-c4ccccc4)n3[C@H]2C1 [CBK283439] | 86.7% |
| O=[N+]([O-])c1ccc(CN2CCN(c3nccnc3OCCN3CCOCC3)CC2)cc1 [CBK082892T] | 99.8% |
| Cc1ccc2c(c1)CC(=O)NC21CCN(C(=O)C2CC2C(=O)O)CC1 (centres unmarked) [CBK047258] | 103% |
| CC(=O)Oc1ccc(NC(=O)CC2Nc3cc(C)c(C)cc3NC2=O)cc1 (centres unmarked) [CBK263088] | 89.5% |
| CN(C(=O)c1c[nH]nc1C1CCCN(Cc2ccnc3ccccc23)C1)C1CCCCC1 (centres unmarked) [CBK286491] | 99.3% |
| CCC(Sc1nnc2c3ccccc3n(C)c2n1)C(=O)Nc1sc2c(c1C#N)CCCC2 (centres unmarked) [CBK263031] | 92.6% |
| Cc1ccc(S(=O)(=O)NCC(=O)Nc2cnc(-c3cccc(C)c3)c(-c3ccc(N)cc3)n2)cc1 [CBK037600] | 83.5% |
| CCOC(=O)c1c(N)n(-c2cccc(C(F)(F)F)c2)c2nc3ccccc3nc12 [CBK264977] | 95.6% |
| c1ccc(CN2CCN(Cc3ccccc3)C2c2ccc[nH]2)cc1 [CBK261283] | 82.9% |
| C#CCN(C)CC[C@@H]1CC[C@H](O)[C@@H](C(=O)NC(C)C)O1 [CBK288718] | 109% |
| Cc1nccn1CCNC(=O)c1ccccc1Cn1cccn1 [CBK281979] | 101% |
| COc1ccc(-c2noc([C@@H]3C[C@@H](O)CN3Cc3cccc(C#N)c3)n2)cc1 [CBK288843] | 92.4% |
| O=S(=O)(NCc1cccnc1)N1CCOCC1 [CBK269945] | 85.1% |

same assay, conditions: human, hela cells, % viability, bulk resorufin, single well

| Compound | viability at 28.5 h, 10 µM |
| --- | --- |
| CC(=O)c1c(O)n(C2CCCCC2)c(=O)[nH]c1=O [CBK287861] | 91.9% |

From publication PMC12040169 (PLOS Biology, 2025)
